Reference: EP0293500A1, “3-heteroalkyl-2,4.quinzaoline-diones” (AMERICAN CYANAMID COMPANY, priority 1987, dated 1988)

Key:
[1] = molecular target: T1, thromboxane synthetase (Rattus norvegicus, UniProt P49430); assay: Inhibition of thromboxane (TX) formation (TXB2 radioimmunoassay) in washed rat platelets; assay type: cell-based, Okamoto-Aoki spontaneously hypertensive rats (SHR); conditions: percent inhibition of TXB2 formation; drug at 10^-4M; SHR platelet suspension, 10 minutes at 37 C
T1 construct: The platelets were isolated by centrifuging the PRP for 10 minutes at 1060xg; from tissue; host or cells: washed blood platelets from Okamoto-Aoki spontaneously hypertensive rats (SHR)
T1 sequence (P49430 1-533): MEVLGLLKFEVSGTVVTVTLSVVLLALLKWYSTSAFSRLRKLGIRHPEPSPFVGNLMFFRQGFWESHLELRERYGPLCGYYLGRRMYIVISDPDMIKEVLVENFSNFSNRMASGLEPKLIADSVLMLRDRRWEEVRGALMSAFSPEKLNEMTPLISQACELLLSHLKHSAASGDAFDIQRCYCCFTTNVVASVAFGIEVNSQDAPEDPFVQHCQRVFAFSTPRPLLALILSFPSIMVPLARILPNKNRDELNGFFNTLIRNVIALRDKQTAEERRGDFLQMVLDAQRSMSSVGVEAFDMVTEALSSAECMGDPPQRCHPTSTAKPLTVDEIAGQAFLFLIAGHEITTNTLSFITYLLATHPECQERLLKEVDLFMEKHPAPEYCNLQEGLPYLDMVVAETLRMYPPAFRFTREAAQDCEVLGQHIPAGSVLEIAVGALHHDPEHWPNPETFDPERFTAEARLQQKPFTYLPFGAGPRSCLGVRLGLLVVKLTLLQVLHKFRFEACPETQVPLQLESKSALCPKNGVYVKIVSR
Excerpt: The platelet rich plasma (PRP) was separated. […] The inhibition of thromboxane (TX) formation was studied by determing the concentration of thromboxane […] (TXB2), the stable hydrolysis product of TXA2.

[2] = tested on: spontaneously hypertensive rats of the Okamoto strain; assay: Hypotensive activity in spontaneously hypertensive rats (method of Chan and Poorvin); assay type: in vivo; conditions: male SHR, average MABP 160±1.5 mm of mercury; gavage, 100 mg/kg or less, second identical dose 24 hours later; MABP at 28 hours after the initial dose; number of rats in brackets
Method: The novel compounds of the present invention are also active hypotensive agents and were tested for hypotensive activity by the method of P. S. Chan and b. Poorvin, Clinical and Experimental Hypertension, 1 (6), 817-830 (1979). Male, 16 week old, spontaneously hypertensive rats of the Okamoto strain, from Taconic Farms, Germantown, New York having an average mean arterial blood pressure of 160±1.5 mm of mercury were used in the test. […] A second identical dose of the test compound, without sodium chloride loading is given 24 hours later. At 28 hours after the initial dose, the mean arterial blood pressure (MABP) is measured by the method of Chan and Poorvin vide supra. The procedure is repeated in a second and third rat when necessary. The results of this test on representative compounds of the present invention appear in Table II below.

| Compound | inhibition at 100 µM [1] | MABP/mm Hg (no. of rats) [2] |
| --- | --- | --- |
| O=c1c2ccccc2nnn1CCCn1ccnc1 [3-[3-(1H-Imidazol-1-yl)propyl]-1,2,3-benzotriazin-4(3H)-one] | 97% | 111(2) mm Hg |
| O=c1c2cc(Cl)ccc2nnn1CCCCCCCCn1ccnc1 [6-Chloro-3-[8-(1H-imidazol-1-yl)octyl]-1,2,3-benzotriazin-4(3H)-one, monohydro-chloride] | 90% | 116(2) mm Hg |
| Cc1ccc2[nH]c(=O)n(CCC(C)n3ccnc3)c(=O)c2c1 (stereo not shown) [Example 17, 3-[3-(1H-Imidazol-1-yl)butyl]-6-methyl-2,4(1H,3H)-quinazolinedione] | 88% | 111(2) mm Hg |
| O=c1[nH]c2ccc(Cl)cc2c(=O)n1CCCCn1ccnc1 [Example 24, 6-Chloro-3-[4-(1H-imidazol-1-yl)butyl]-2,4(1H,3H)-quinazolinedione] | 93% | 106(2) mm Hg |
| Cc1cn(CCCn2c(=O)[nH]c3ccc(Cl)cc3c2=O)cn1 [Example 26, 6-Chloro-3-[3-(4-methyl-1H-imidazol-1-yl)-propyl]-2,4(1H,3H)-quinazolinedione] | 99% | 125(3) mm Hg |
| Cc1cn(CCCCn2c(=O)[nH]c3ccc(Cl)cc3c2=O)cn1 [Example 28, 6-Chloro-3-[4-(4-methyl-1H-imidazol-1-yl)butyl]-2,4(1H,3H)-quinazolinedione] | 70% | 118(2) mm Hg |
| O=c1c2ccc(Cl)cc2ncn1CCCCn1ccnc1 [Example 149, 7-Chloro-3-(4-(1H-imidazol-1-yl)butyl]-4(3H)-quinazolinone] |  | 126(2) mm Hg |
| CCc1nc2ccc(Cl)cc2c(=O)n1CCCn1ccnc1 [Example 158, 6-Chloro-2-ethyl-3-[3-(1H-imidazol-1-yl)propyl]-4(3H)-quinazolinone] |  | 120(4) mm Hg |

Further lines, with some results ahead:

| inhibition at 100 µM [1] | Compound | MABP/mm Hg (no. of rats) [2] |
| --- | --- | --- |
| 76% | O=c1[nH]c2ccccc2c(=O)n1CCCn1ccnc1 [Example 10, 3-[3-(1 H-Imidazol-1-yl)propyl]-2,4-(1H,3H)-quinazolinedione] | 131(3) mm Hg |
| 100% | O=c1[nH]c2ccccc2c(=O)n1CCCCn1ccnc1 [Example 11, 3-[4-(1H-Imidazol-1-yl)butyl]-2,4(1H,3H)-quinazolinedione] | 108(2) mm Hg |
| 98% | O=c1[nH]c2ccc(Br)cc2c(=O)n1CCCCn1ccnc1 [Example 12, 6-Bromo-3-[4-(1H-imidazol-1-yl)butyl]-2,4(1H,3H)-quinazolinedione] | 107(2) mm Hg |
| 98% | O=c1[nH]c2ccccc2c(=O)n1CCCCCn1ccnc1 [Example 18, 3-[5-(1 H-Imidazol-1-yl)pentyl]-2,4(1H,3H)-quinazolinedione] | 104(2) mm Hg |
| 98% | Cc1cn(CCCn2c(=O)[nH]c3ccccc3c2=O)cn1 [Example 19, 3-[3-(4-Methyl-1H-imidazol-1-yl)propyl]-2,4(1H,3H)-quinazolinedione] | 135(3) mm Hg |
| 100% | CC(CCn1c(=O)[nH]c2ccccc2c1=O)n1ccnc1 (stereo not shown) [Example 20, 3-[3-(1H-Imidazol-1-yl)butyl]-2,4(1H,3H)-quinazolinedione] | 121(3) mm Hg |
| 100% | CC(Cn1ccnc1)Cn1c(=O)[nH]c2ccccc2c1=O (stereo not shown) [Example 21, 3-[3-(1H-Imidazol-1-yl)-2-methylpropyl]-2,4(1H,3H)-quinazolinedione] | 112(2) mm Hg |
